In ChEMBL document CHEMBL3421567, “Non-electrophilic modulators of the canonical Keap1/Nrf2 pathway” (Bioorg Med Chem Lett, 2015):
Residues, ends and D or L forms follow the SMILES beside them.

Columns and labels:
Assay type in all cases: protein assay
Keap1/Nrf2 [1] = target: T1, Keap1/Nrf2 (Homo sapiens, UniProt Q14145+Q16236); assay: Binding affinity to Keap1/Nrf2 complex (unknown origin) by fluorescence polarization assay
Keap1/Nrf2 [2] = target: T1, Keap1/Nrf2; assay: Inhibition of Keap1/Nrf2 complex (unknown origin)
Keap1/Nrf2 [3] = target: T1, Keap1/Nrf2; assay: Binding affinity to Keap1/Nrf2 complex (unknown origin) by ITC method

T1 sequence (Q16236 whole entry): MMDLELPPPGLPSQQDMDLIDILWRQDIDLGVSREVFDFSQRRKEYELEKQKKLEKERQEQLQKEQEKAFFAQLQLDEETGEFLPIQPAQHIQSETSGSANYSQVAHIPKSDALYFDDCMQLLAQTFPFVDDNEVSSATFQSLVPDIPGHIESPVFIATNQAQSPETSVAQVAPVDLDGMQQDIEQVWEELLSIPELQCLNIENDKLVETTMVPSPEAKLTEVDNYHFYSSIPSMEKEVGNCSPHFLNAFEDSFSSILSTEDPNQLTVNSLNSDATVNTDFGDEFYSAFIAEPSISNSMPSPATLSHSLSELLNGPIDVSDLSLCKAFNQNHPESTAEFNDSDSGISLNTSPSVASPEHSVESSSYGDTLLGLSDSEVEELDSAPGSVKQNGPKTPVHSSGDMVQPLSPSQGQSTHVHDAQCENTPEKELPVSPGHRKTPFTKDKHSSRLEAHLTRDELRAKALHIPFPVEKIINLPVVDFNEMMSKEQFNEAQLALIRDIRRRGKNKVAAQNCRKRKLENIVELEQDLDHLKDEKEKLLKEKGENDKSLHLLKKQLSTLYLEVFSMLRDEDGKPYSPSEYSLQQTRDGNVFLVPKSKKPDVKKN
T1 sequence (Q14145 whole entry): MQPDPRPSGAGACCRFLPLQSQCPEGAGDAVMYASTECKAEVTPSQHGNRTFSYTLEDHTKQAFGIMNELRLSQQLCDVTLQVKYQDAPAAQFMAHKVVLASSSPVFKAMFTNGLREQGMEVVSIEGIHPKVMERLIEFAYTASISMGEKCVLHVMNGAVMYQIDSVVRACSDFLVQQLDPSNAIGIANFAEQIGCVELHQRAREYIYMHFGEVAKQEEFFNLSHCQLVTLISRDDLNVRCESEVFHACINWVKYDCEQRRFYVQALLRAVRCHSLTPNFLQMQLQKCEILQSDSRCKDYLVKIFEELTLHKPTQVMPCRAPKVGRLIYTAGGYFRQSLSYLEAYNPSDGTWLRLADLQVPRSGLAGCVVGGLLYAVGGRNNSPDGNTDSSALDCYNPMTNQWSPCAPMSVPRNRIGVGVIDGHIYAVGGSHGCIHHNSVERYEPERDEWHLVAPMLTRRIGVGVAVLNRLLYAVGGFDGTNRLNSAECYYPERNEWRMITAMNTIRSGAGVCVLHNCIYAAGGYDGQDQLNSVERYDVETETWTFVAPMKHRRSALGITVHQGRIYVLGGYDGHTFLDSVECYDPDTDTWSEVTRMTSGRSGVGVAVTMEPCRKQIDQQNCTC

Kd (Keap1/Nrf2 [3]) [nM]	Structure (SMILES)	also measured
–	CC[C@H](C)[C@H](NC(=O)[C@@H]1CCCN1C(=O)[C@H](CC(C)C)NC(=O)[C@H](Cc1ccccc1)NC(=O)[C@H](CCC(=O)O)NC(=O)CNC(=O)[C@@H](NC(=O)[C@H](CCC(=O)O)NC(=O)[C@H](CCC(=O)O)NC(=O)[C@H](CC(=O)O)NC(=O)[C@H](CC(C)C)NC(=O)[C@H](CCC(N)=O)NC(=O)[C@@H](N)CC(C)C)[C@@H](C)O)C(=O)N[C@@H](CCC(N)=O)C(=O)O	Kd (Keap1/Nrf2 [1]): 61.9 nM
–	Cc1cccc2c1CCN(C(=O)[C@H]1CCCC[C@H]1C(=O)O)[C@@H]2CN1Cc2ccccc2C1=O	IC50 (Keap1/Nrf2 [2]): 750 nM
1000	CC(C)C[C@H](NC(=O)[C@@H](N)CC(=O)O)C(=O)NCC(=O)O (H-Asp-Leu-Gly-OH)	–
5	C[C@@H](O)[C@H](NC(=O)[C@@H](N)CCC(=O)O)C(=O)NCC(=O)N[C@@H](CCC(=O)O)C(=O)O (H-ETGE-OH)	–
